“Also recorded” adds a separate entry of the source.
Experiments:
phospho-Akt(ser473) [1] = conditions: reported earlier; cited from earlier work
[2] = system: LNCaP prostate cancer cells; assay: Flow cytometric screen for sensitization to TRAIL-induced apoptosis (nuclear fragmentation by propidium iodide, mitochondrial depolarization by TMRM); type: cell-based; conditions: for capacity to sensitize LNCaP prostate cancer cells to TRAIL-induced apoptosis: androgen-deprived, 40 μM lignan 1 hour before 10 ng/ml izTRAIL, 20 hours
Procedure: (§1) Flow cytometric analysis of apoptosis with HTS platform was performed on cells that were plated on a 96-well plate as triplicate samples. After 24 hours in androgen-deprived conditions, the cells were pretreated with 40 μM lignans or lignan derivatives for 1 hour prior to addition of 10 ng/ml izTRAIL. Twenty hours later the plate was centrifuged with a culture plate rotor (1000 rpm, 3 minutes). For analysis of nuclear fragmentation, propidium iodide (PI) buffer (40 mM Na-citrate, 0.3% Triton X-100, 50 μg/ml PI; Sigma) was added to the wells. After 10 minutes incubation at room temperature, the plate was analyzed with LSRII flow cytometer equipped with HTS platform (PE-A channel). The fraction of sub-G0/G1 events (nuclear fragmentation) was gated as a measure of apoptotic cell death. For detection of mitochondrial depolarization, the cells were detached by trypsinization of the cells and incubated in 20 nM tetramethylrhodamine (TMRM; Invitrogen) in warm culture medium for 10 minutes before analysis. The plate was analyzed with LSRII flow cytometer equipped with HTS platform (FSC, PE-A channel). The cells with decreased TMRM incorporation were considered to have undergone mitochondrial membrane depolarization. Activated caspase-3 in cells was labeled with phycerythrin (PE)-conjugated antibody according to manufacturer's protocol (BD Pharmingen) and analyzed by FacsCalibur flow cytometer (FL-2, FSC).
LNCaP cells were cultured in the absence of 1 nM androgen and incubated with lignan compounds (40 μM) for 1 hour before izTRAIL treatment (10 ng/ml) or control for 20 hours. The samples were screened for nuclear fragmentation by propidium iodide labeling (FIG. 1A) or mitochondrial depolarization by TMRM labeling (FIG. 1B). The plates were analyzed with LSRII flow cytometer equipped with HTS platform (FSC, PE-A channels). The fraction of sub-G0/G1 events (nuclear fragmentation; PE-A channel) was gated as a measure of apoptotic cell death (FIG. 1A) and the cells with decreased TMRM incorporation (PE-A channel) were considered to have undergone mitochondrial membrane depolarization (FIG. 1B). Representative histograms and dot blots for control, TRAIL, nortrachelogenin (NTG) and NTG+TRAIL treatments are viewed.
Importantly, substitution with methyl group at position 8 further increases activity of dibenzylbutyrolactone lignans in sensitization of LNCaP prostate cancer cells to TRAIL-mediated apoptosis (FIG. 8). LNCaP cells were cultured in the absence of 1 nM androgen and incubated with indicated lignan compounds (40 μM) for 1 hour before izTRAIL treatment (10 ng/ml) or control for 20 hours. The cells were disrupted and the nuclei labeled for DNA content with propidium iodide. The samples were analyzed by flow cytometry and the fraction of sub-G0/G1 events (nuclear fragmentation) was detected as a measure of apoptotic cell death (mean±SEM; n=4). (FIG. 8A). Alternatively, LNCaP cells (+/−1 nM androgen) were incubated with 0-100 μM 8-Me-MAT for 1 hour after which total cell lysates were prepared and the samples were analyzed by Western blotting for Akt and phospho-Akt(ser473) expression.

[3] = in vivo; cited from earlier work
LNCaP cells [4] = assay: Caspase-3 activation by flow cytometry, TRAIL with or without NTG; type: cell-based; conditions: TRAIL alone, 20 h
Procedure: as §1
As NTG was identified as the most efficient TRAIL-sensitizing lignan, we analyzed the ability of NTG to affect the efficacy of different TRAIL concentrations in triggering of caspase-3 activation (FIG. 2A). The TRAIL resistant LNCaP cells were cultured in androgen-supplied and androgen-deprived conditions to simulate the effects of androgen-deprivation therapy, and treated for 20 h with TRAIL alone or with the combination of 40 μM NTG and TRAIL. The percentage of cells with activated caspase-3 increased from maximum of 15% to 60% for androgen-deprived, and from 13% to 30% for androgen-supplied cells (Mean±SEM; n≧3) (FIG. 2A).

LNCaP cells [5] = assay: Clonogenic assay; type: cell-based; conditions: 11 days; 10 ng/ml TRAIL or 40 μM NTG alone
Procedure: Five hundred LNCaP cells were plated in 1 ml of culture medium and let to adhere prior to addition of the indicated treatments. After 11 days of incubation, cell colonies were fixed with glutaraldehyde (6.0% v/v), stained with crystal violet (0.5% w/v) and imaged using a digital camera.
To investigate the effects of NTG alone and in combination with TRAIL on colony formation ability, the LNCaP cells were plated in low confluency and treated for 11 days.

phospho-Akt(ser473) [6] = assay: Western blot of Akt / phospho-Akt(ser473); type: cell-based; conditions: LNCaP +/- 1 nM androgen; 0-100 μM lignan, 1 hour (NTG also 100 μM, 0-8 hours)
Procedure: Whole cell lysates were prepared by lysing floating and attached cells in Laemmli sample buffer and boiling the samples for 10 minutes. Proteins were separated by SDS-PAGE and transferred on PVDF membrane (Millipore). Western blotting was performed using antibodies against Akt, phospho-Akt (Ser473), GSK-3β, phospho-GSK-3β (Ser9) and phospho-EGF receptor Tyr(1068) (Cell Signalling Technology), Actin (clone AC-40; Sigma-Aldrich), PI3K p85α (clone 4/PI3-Kinase; BD Pharmingen), EGF receptor, Insulin receptor β and IGF-I receptor β (Santa Cruz Biotechnology), and Phospho-tyrosine (clone 4G10; Millipore). HRP-conjugated secondary antibodies were from Southern Biotechnology Associates, Promega, and Amersham Biosciences. The results were visualized using the ECL method (Amersham Biosciences) on x-ray film. The presented Western blot results are representative of at least three independent experiments. Densitometric analysis of Western blots was done using scanned films with the MCID M5+ software. The values were normalized to the untreated control sample, which was given the value 1. The histograms in FIG. 4 present a relative decrease in ratio of phosphorylated vs. non-phosphorylated protein compared to control cells.
LNCaP cells (+/−1 nM androgen) were treated with 0-100 μM enterolactone (ENL), matairesinol (MAT) or NTG for 1 hour prior to preparation of total cell lysates (FIG. 4A). The relative decrease in pAkt/Akt ratio was quantified from western blot analysis with Akt (60 kDa) and phospho-Akt(ser473) (Mean±SEM; n=4; Student's t-test *p<0.05, **p<0.01). Alternatively, androgen-deprived LNCaP cells were incubated with 100 μM NTG for 2 hours, fixed and labeled with Akt antibody followed by Alexa 546-conjugated secondary antibody. The samples were viewed at LSM 510 confocal microscope (63× oil objective, 543 nm excitation) (FIG. 4B). To examine the time-dependence of the observed inhibitory effect, LNCaP cells (+/−1 nM androgen) were incubated with 100 μM NTG for 0-8 hours after which total cell lysates were prepared. The western blot analysis with Akt, phospho-Akt(ser473), GSK-3β and phospho-GSK-3β(ser9) was quantified. The histogram presents a relative decrease in pAkt/Akt ratio (FIG. 4C.) or pGSK-3β/GSK-3β ratio (FIG. 4D.) compared to control cells (Mean±SEM; n=3). […]
Importantly, substitution with methyl group at position 8 further increases activity of dibenzylbutyrolactone lignans in sensitization of LNCaP prostate cancer cells to TRAIL-mediated apoptosis (FIG. 8). […] The samples were analyzed by flow cytometry and the fraction of sub-G0/G1 events (nuclear fragmentation) was detected as a measure of apoptotic cell death (mean±SEM; n=4). […]

Compound: O=C1OC[C@H](Cc2cccc(O)c2)[C@H]1Cc1cccc(O)c1 [ENL, Enterolactone]
- Akt phosphorylation in prostate cancer cells (phospho-Akt(ser473) [1]): can reportedly inhibit Akt phosphorylation

Compound: COc1cc(C[C@H]2COC(=O)[C@@H]2Cc2ccc(O)c(OC)c2)ccc1O [MAT, Matairesinol, reference compound]
- increase of the apoptotic response compared to TRAIL alone (factor) ([2]; lignan in combination with TRAIL): 2.5
- Akt phosphorylation in prostate cancer cells (phospho-Akt(ser473) [1]): can reportedly inhibit Akt phosphorylation
- conversion into the mammalian lignans [3]: converted to ENL in the digestive tract

Compound: COc1ccc(CC2COC(=O)C2(C)Cc2ccc(OC)c(OC)c2)cc1OC (stereo not shown) [8-Me-dimethylmatairesinol, 8-Methyldimethylmatairesinol]
- capacity to sensitize LNCaP prostate cancer cells to TRAIL-induced apoptosis [2]: clearly enhances the activity

Compound: TRAIL
- percentage of cells with activated caspase-3 (maximum) (LNCaP cells [4]; androgen-deprived LNCaP): 15%
- percentage of cells with activated caspase-3 (maximum) (LNCaP cells [4]; androgen-supplied LNCaP): 13%
- colony formation ability, single agent (LNCaP cells [5]): not able to inhibit LNCaP growth

Compound: COc1cc(CC2COC(=O)C2(C)Cc2ccc(O)c(OC)c2)ccc1O (stereo not shown) [8-Me-MAT, 8-Methylmatairesinol]
- capacity to sensitize LNCaP prostate cancer cells to TRAIL-induced apoptosis [2]: increased capacity to sensitize LNCaP prostate cancer cells to TRAIL-mediated apoptosis
- Akt phosphorylation (pAkt/Akt ratio) (phospho-Akt(ser473) [6]): strongly inhibitory effect on Akt phosphorylation; also recorded: inhibit Akt phosphorylation yet more efficiently than ENL or MAT
